The results in this text go back to patent publication US10988474B2, “Compounds acting at multiple prostaglandin receptors giving a general anti-inflammatory response” (ALLERGAN, INC., priority 2011, dated 2021).

Holding throughout (format): cell-based
The target in assay [1] is T1, human prostanoid IP receptor (Homo sapiens, UniProt P43119).
T1 construct: expressed in transfected cells
Description: FLIPR Ca2+ signaling PG antagonist assay, IP stable cell line. The settings on record: HEK-293 EBNA cells, human recombinant IP, no exogenous G-protein; standard agonist Cicaprost. Here is the method: (§1) The above compounds were tested for PG antagonist activity as follows using human recombinant prostanoid receptor (DP1, EP1-4, FP, IP and TP) stable cell lines: In order to measure the response of Gs and Gi coupled prostanoid receptors as a Ca^2+ signal, chimeric G protein cDNAs were used. Stable cell lines over-expressing human prostanoid DP1, EP1-4, FP, IP, and TP receptors were established as follows:
(§2) Briefly, human prostanoid DP1, EP2, and EP4 receptor cDNAs were co-transfected with chimeric Gqs cDNA containing a haemagglutanin (HA) epitope; human prostanoid EP3 receptors were co-transfected with chimeric Gqi-HA; human EP1, FP, IP, and TP receptor cDNAs were expressed with no exogenous G-proteins. Gqs and Gqi chimeric cDNAs (Molecular Devices, Sunnyvale, Calif., U.S.A.), as well as cDNAs of prostanoid receptors, were cloned into a pCEP4 vector with a hygromycin B selection marker. Transfection into HEK-293 EBNA (Epstein-Barr virus nuclear antigen) cells was achieved by the FuGENE 6 transfection Reagent (Roche Applied Science, Indianapolis, Ind., USA). Stable transfectants were selected according to hygromycin resistance. Because Gqs and Gqi contained an HA epitope, G-protein expression was detected by Western blotting analysis using anti-mouse HA monoclonal antibody and horseradish peroxidase (HRP)-conjugated secondary antibody, while functional expression of prostanoid receptors was detected by FLIPR screening (Matias et al., 2004). These stable cell lines were validated using previously published antagonists at 10 μM against serial dilutions of standard agonists by FLIPR functional assays for Ca^2+ Signaling (as described below).
(§3) Ca^2+ signaling studies were performed using a FLIPR TETRA system (Molecular Devices, Sunnyvale, Calif., USA) in the 384-format. This is a high-throughput instrument for cell-based assays to monitor Ca^2+ signaling associated with GPCRs and ion channels. Cells were seeded at a density of 5×10^4 cells/well in BioCoat poly-D-lysine coated, black wall, clear bottom 384-well plates (BD Biosciences, Franklin lakes, NJ, USA) and allowed to attach overnight in an incubator at 37° C. The cells were then washed twice with HBSS-HEPES buffer (Hanks' balanced salt solution without bicarbonate and phenol red, 20 mM HEPES, pH 7.4) using an ELx405 Select CW Microplate Washer (BioTek, Winooski, Vt., USA). After 60 min of dye-loading in the dark using the Ca^2+-sensitive dye Fluo-4AM (Invitrogen, Carlsbad, Calif., USA), at a final concentration of 2×10^−6M, the plates were washed 4 times with HBSS-HEPES buffer to remove excess dye and leaving 50 μl of buffer in each well. The plates were then placed in the FLIPR TETRA instrument and allowed to equilibrate at 37° C. Compounds were added in a 25 μl volume to each well to give final concentrations of 0.1 μM, 0.3 μM, 1 μM, 3 μM, 10 μM, and 30 μM; or 0.067 μM, 0.1 μM, 0.2 μM, 0.3 μM, 0.67 μM, and 1 μM for cells over-expressing TP receptors. After 4.5 minutes, a 7-point serial dilution of the standard agonist for the corresponding receptor, in a 25 μl volume was injected at the final concentrations from 10^−11M to 10^−5M in 10-fold serial dilution increments for cells expressing human recombinant DP1, EP1, EP2, EP3, EP4, FP, and IP receptors. The dose range for the standard agonist for human recombinant TP receptors was from 10^−12M to 10^−6M. HBSS-HEPES buffer was used as the negative control for the standard agonists. Cells were excited with LED (light emitting diode) excitation at 470-495 nm and emission was measured through an emission filter at 515-575 nm. Assay plates were read for 3.5 minutes using the FLIPR^TETRA. The peak increase in fluorescence intensity was recorded for each well. On each plate, negative controls, dose response of positive controls, and co-treatments of antagonist-agonist for each dose were in triplicates. Standard agonists were as follows: DP=BW 245C, EP1-EP4=PGE2, FP=17-phenyl-PGF2α, IP=Cicaprost, and TP=U-46619. […]

Assay [2] has as its target T2, human prostanoid EP3 receptor (Homo sapiens, UniProt P43115).
T2 construct: expressed in transfected cells
T2 sequence (P43115 1-390): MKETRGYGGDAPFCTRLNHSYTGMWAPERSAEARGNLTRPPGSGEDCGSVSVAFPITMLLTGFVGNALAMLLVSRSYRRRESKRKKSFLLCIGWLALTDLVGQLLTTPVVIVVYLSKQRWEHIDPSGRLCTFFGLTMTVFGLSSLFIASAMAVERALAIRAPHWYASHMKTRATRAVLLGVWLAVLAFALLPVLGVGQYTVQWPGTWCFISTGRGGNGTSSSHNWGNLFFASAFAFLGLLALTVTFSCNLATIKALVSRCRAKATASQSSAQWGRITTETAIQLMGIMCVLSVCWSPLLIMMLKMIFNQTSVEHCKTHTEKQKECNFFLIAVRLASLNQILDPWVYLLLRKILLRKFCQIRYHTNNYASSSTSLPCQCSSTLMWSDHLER
Briefly: FLIPR Ca2+ signaling PG antagonist assay, EP3 stable cell line. To be noted: HEK-293 EBNA cells, human recombinant EP3 with chimeric Gqi; standard agonist PGE2. How it is done: as §1, §2, §3

Assay [3] addresses T3, human prostanoid EP4 receptor (Homo sapiens, UniProt P35408).
T3 construct: expressed in transfected cells
Briefly: FLIPR Ca2+ signaling PG antagonist assay, EP4 stable cell line. To be noted: HEK-293 EBNA cells, human recombinant EP4 with chimeric Gqs; standard agonist PGE2. How it is done: as §1, §2, §3

Assay [4] has as its target T4, human prostanoid DP1 receptor (Homo sapiens, UniProt Q13258).
T4 construct: expressed in transfected cells
T4 sequence (Q13258 1-359): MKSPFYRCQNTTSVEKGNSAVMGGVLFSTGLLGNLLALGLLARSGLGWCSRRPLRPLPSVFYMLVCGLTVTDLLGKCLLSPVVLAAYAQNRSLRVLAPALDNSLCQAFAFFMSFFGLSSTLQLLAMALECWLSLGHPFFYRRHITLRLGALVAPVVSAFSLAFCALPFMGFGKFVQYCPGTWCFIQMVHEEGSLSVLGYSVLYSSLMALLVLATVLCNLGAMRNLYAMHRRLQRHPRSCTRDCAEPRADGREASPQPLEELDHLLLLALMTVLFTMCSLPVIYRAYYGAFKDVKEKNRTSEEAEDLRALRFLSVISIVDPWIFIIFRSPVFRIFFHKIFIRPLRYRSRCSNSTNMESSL
Briefly: FLIPR Ca2+ signaling PG antagonist assay, DP1 stable cell line. The settings on record: HEK-293 EBNA cells, human recombinant DP1 with chimeric Gqs; standard agonist BW 245C; read-out: DP (Kb, PG antagonist activity). How it is done:
as §1, §2, §3

Assay [5] addresses T5, human prostanoid FP receptor (Homo sapiens, UniProt P43088).
T5 construct: expressed in transfected cells
Description: FLIPR Ca2+ signaling PG antagonist assay, FP stable cell line. To be noted: HEK-293 EBNA cells, human recombinant FP, no exogenous G-protein; standard agonist 17-phenyl-PGF2α. Here is the method: as §1, §2, §3

The structures appear in SMILES notation.

T1 sequence (P43119 whole entry): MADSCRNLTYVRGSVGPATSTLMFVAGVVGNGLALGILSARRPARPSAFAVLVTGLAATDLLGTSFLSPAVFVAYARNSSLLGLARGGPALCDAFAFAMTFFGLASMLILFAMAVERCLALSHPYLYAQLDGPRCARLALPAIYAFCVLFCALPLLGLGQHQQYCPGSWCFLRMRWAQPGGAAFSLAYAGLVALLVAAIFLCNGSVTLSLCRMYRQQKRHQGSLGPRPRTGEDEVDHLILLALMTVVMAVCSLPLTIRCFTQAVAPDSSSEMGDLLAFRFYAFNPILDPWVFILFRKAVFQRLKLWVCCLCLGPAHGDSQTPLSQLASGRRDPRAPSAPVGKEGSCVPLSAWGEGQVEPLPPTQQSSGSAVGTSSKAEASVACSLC
T3 sequence (P35408 whole entry): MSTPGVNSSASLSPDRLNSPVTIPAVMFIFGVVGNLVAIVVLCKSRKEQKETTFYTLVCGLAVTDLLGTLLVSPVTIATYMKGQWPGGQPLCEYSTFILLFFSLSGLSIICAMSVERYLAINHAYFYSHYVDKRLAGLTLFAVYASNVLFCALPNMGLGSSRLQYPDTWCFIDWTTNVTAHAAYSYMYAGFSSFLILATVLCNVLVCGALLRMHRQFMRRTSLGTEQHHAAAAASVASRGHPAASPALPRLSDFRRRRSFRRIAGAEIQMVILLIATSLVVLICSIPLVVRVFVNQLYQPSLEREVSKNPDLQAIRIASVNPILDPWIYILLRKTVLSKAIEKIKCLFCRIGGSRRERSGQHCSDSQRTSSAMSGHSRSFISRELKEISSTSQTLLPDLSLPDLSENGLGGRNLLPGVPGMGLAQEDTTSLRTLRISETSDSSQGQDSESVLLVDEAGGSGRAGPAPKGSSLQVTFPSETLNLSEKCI
T5 sequence (P43088 whole entry): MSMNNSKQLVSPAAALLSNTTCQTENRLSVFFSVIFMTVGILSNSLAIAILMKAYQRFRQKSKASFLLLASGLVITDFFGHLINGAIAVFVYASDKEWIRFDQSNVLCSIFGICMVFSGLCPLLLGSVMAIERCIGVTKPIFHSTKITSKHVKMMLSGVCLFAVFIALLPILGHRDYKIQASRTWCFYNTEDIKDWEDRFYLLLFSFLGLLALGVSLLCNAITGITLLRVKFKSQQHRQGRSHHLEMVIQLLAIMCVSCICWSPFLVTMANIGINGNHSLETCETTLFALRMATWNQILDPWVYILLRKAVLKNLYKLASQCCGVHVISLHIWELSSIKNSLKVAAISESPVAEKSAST

Take `CC1(COc2ccc(Br)cc2Cn2ncc3cc(C(=O)O)ccc32)CC1` [Example 19]: the Kb in assay [1] was 4.6 µM; in assay [2], 3.6 µM; in assay [3] it was 0.014 µM; in assay [4], 1.2 µM; in assay [5], 0.016 µM.
For `CC(C)COc1ccc(OC(F)(F)F)cc1Cn1ncc2cc(C(=O)O)ccc21` [Example 20, 1-(2-Isobutoxy-5-Trifluoromethoxy-Benzyl)-1H-Indazole-5-Carboxylic Acid] the same measures were 2.7 µM, no less than 10 µM, 0.03 µM, 0.5 µM and 0.013 µM.
For `Cc1nn(Cc2cc(Br)ccc2OCC(C)C)c2ccc(C(=O)O)cc12` [Example 21, 1-(5-Bromo-2-Isobutoxy-Benzyl)-3-Methyl-1H-Indazole-5-Carboxylic Acid] the same measures were 0.9 µM, 2.2 µM, 0.07 µM, 0.1 µM and 0.03 µM.
With `Cc1nn(Cc2cc(OC(F)(F)F)ccc2OCC(C)C)c2ccc(C(=O)O)cc12` [Example 22, 1-(2-Isobutoxy-5-Trifluoromethoxy-Benzyl)-3-Methyl-1H-Indazole-5-Carboxylic Acid], the Kb in assay [1] was 6 µM; in assay [2], no less than 10 µM; in assay [3], 0.35 µM; in assay [4], 1.7 µM; in assay [5], 0.14 µM.
For `CCC(CC)COc1ccc(Cl)cc1Cn1nc(C)c2cc(C(=O)O)ccc21` [Example 23, 1-[5-Chloro-2-(2-Ethyl-Butoxy)-Benzyl]-3-Methyl-1H-Indazole-5-Carboxylic Acid], the antagonist dissociation constant (Kb) turned out to be 0.5 µM in assay [1]; 1.2 µM in assay [2]; 0.05 µM in assay [3]; 0.9 µM in assay [4]; 0.17 µM in assay [5].
The like results for `Cc1nn(Cc2cc(Cl)ccc2OCC(C)C)c2ccc(C(=O)O)cc12` [Example 24, 1-(5-Chloro-2-Isobutoxy-Benzyl)-3-Methyl-1H-Indazole-5-Carboxylic Acid] were, in that order, 1.43 µM, 2.44 µM, 0.15 µM, 0.16 µM and 0.04 µM.
For `Cc1nn(Cc2cc(C(F)(F)F)ccc2OCC(C)C)c2ccc(C(=O)O)cc12` [Example 25, 1-(2-Isobutoxy-5-Trifluoromethyl-Benzyl)-3-Methyl-1H-Indazole-5-Carboxylic Acid] the same measures were 1.03 µM, 4.5 µM, 0.16 µM, 0.22 µM and 0.18 µM.
For `CCC(CC)COc1ccc(C(F)(F)F)cc1Cn1nc(C)c2cc(C(=O)O)ccc21` [Example 26, 1-[2-(2-Ethyl-Butoxy)-5-Trifluoromethyl-Benzyl]-3-Methyl-1H-Indazole-5-Carboxylic Acid] the same measures were 1.8 µM, 3.3 µM, 0.07 µM, 1.7 µM and 0.5 µM.
Turning to `CCC(CC)COc1ccc(Br)cc1Cn1nc(C)c2cc(C(=O)O)ccc21` [Example 27, 1-[5-Bromo-2-(2-Ethyl-Butoxy)-Benzyl]-3-Methyl-1H-Indazole-5-Carboxylic Acid], the Kb was determined as 0.44 µM in assay [1]; 2.6 µM in assay [2]; 0.053 µM in assay [3]; 1.6 µM in assay [4]; 0.2 µM in assay [5].
The like results for `Cc1nn(Cc2cc(Br)ccc2OCC2(C)CC2)c2ccc(C(=O)O)cc12` [Example 28, 1-[5-Bromo-2-(1-Methyl-Cyclopropylmethoxy)-Benzyl]-3-Methyl-1H-Indazole-5-Carboxylic Acid] were, in that order, 1.53 µM, 2.22 µM, 0.04 µM, 0.73 µM and 0.07 µM.
The like results for `O=C(O)c1ccc2c(cnn2Cc2cc(C(F)(F)F)ccc2OCc2ccc(Cl)cc2)c1` [Example 32, 1-[2-(4-Chloro-Benzyloxy)-5-Trifluoromethyl-Benzyl]-1H-Indazole-5-Carboxylic Acid] were, in that order, 7.4 µM, no less than 10 µM, 5 µM, 1.7 µM and 0.05 µM.
`O=C(O)c1ccc2c(cnn2Cc2cc(C(F)(F)F)ccc2OCC2CCCC2)c1` [Example 33, 1-(2-Cyclopentylmethoxy-5-Trifluoromethyl-Benzyl)-1H-Indazole-5-Carboxylic Acid]: the Kb in assay [1] came out at 0.4 µM; in assay [2], 1.4 µM; in assay [3], 0.03 µM; in assay [4], 0.35 µM; in assay [5], 0.07 µM.
For `O=C(O)c1cccc2c1cnn2Cc1cc(Cl)ccc1OCC1CC1` [Example 34, 1-(5-Chloro-2-Cyclopropylmethoxy-Benzyl)-1H-Indazole-4-Carboxylic Acid] the same measures were no less than 10 µM, no less than 10 µM, no less than 10 µM, 5.4 µM and 3.2 µM.
Take `O=C(O)c1cccc2nn(Cc3cc(Cl)ccc3OCC3CC3)cc12` [Example 35, 2-(5-Chloro-2-Cyclopropylmethoxy-Benzyl)-2H-Indazole-4-Carboxylic Acid]: the Kb in assay [1] was no less than 10 µM; in assay [2] it was no less than 10 µM; in assay [3], 0.67 µM; in assay [4], 1.9 µM; in assay [5], 4.3 µM.
